Measured values published in the supplement of paper PMC10307832.

What was measured:
Assay in all cases: relative viability (nuclei count vs DMSO), 5 days (fraction); higher = more cells survive
[1] = compound: C=CC(=O)Nc1cc(-n2c(=O)ccc3cnc4ccc(-c5ccc(NS(C)(=O)=O)cc5)cc4c32)ccc1C [BMX-IN-1] + Cc1cc(Nc2cc(N3CCN(C)CC3)nc(Sc3ccc(NC(=O)C4CC4)cc3)n2)n[nH]1 [Tozasertib] (partner 0.1 µM)
Outline: (§1)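 Relative viability is defined as nuclei in treated wells over nuclei in vehicle wells. Duplicate plates were run and medians reported. Lung cancer cell lines in 1536-well plates were dosed by pin tool one day after seeding, with one drug or with a fixed anchor-drug dose plus five library-drug doses (not always all listed) in √10 steps, and nuclei were counted after 5 days.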

[2] = compound: C=CC(=O)N1CCC[C@@H](n2nc(-c3ccc(Oc4ccccc4)cc3)c3c(N)ncnc32)C1 [Ibrutinib] + CCNC(=O)c1noc(-c2cc(C(C)C)c(O)cc2O)c1-c1ccc(CN2CCOCC2)cc1 [Luminespib] (partner 0.01 µM)
Outline: as §1

[3] = compound: C=CC(=O)Nc1cc(-n2c(=O)ccc3cnc4ccc(-c5ccc(NS(C)(=O)=O)cc5)cc4c32)ccc1C [BMX-IN-1] + NC(=O)Nc1cc(-c2cccc(F)c2)sc1C(=O)N[C@H]1CCCNC1 [AZD7762] (partner 0.2 µM)
Outline: as §1

[4] = compound: C=CC(=O)Nc1cc(-n2c(=O)ccc3cnc4ccc(-c5ccc(NS(C)(=O)=O)cc5)cc4c32)ccc1C [BMX-IN-1] + N=C(N)NC(=N)NCCc1ccccc1 [Phenformin] (partner 250 µM)
Outline: as §1

Row | Cell Line | relative viability ([1]; first compound 0.02 µM) | relative viability ([1]; first compound 0.2 µM) | relative viability ([1]; first compound 0.6325 µM) | relative viability ([1]; first compound 2 µM) | relative viability ([2]; first compound 0.005 µM) | relative viability ([2]; first compound 0.01581 µM) | relative viability ([2]; first compound 0.05 µM) | relative viability ([2]; first compound 0.1581 µM) | relative viability ([3]; first compound 0.02 µM) | relative viability ([3]; first compound 0.2 µM) | relative viability ([3]; first compound 0.6325 µM) | relative viability ([3]; first compound 2 µM) | relative viability ([4]; first compound 0.02 µM) | relative viability ([4]; first compound 0.2 µM) | relative viability ([4]; first compound 0.6325 µM) | relative viability ([4]; first compound 2 µM) | relative viability ([2]; first compound 0.5 µM)
1 | LC-2-ad | 0.408 | 0.501 | 0.394 | 0.214 | 1.06 | 1.01 | 1.14 | 1.13 | 0.982 | 1.09 | 0.924 | 0.867 | 0.553 | 0.555 | 0.722 | 0.617 | 
2 | NCI-H1975 | 0.958 | 1.1 | 0.792 | 0.695 | 0.162 | 0.183 | 0.212 | 0.254 | 0.797 | 0.742 | 0.895 | 0.673 | 0.404 | 0.428 | 0.453 | 0.416 | 0.138
3 | NCI-H1793 | 0.311 | 0.285 | 0.311 | 0.303 |  | 0.155 | 0.196 | 0.177 | 0.513 | 0.661 | 0.594 | 0.588 | 0.272 | 0.398 | 0.467 | 0.433 | 0.151
4 | HCC-366 | 0.0929 | 0.0929 | 0.112 | 0.1 |  |  |  |  | 0.38 | 0.417 | 0.416 | 0.343 | 0.503 | 0.625 | 0.639 | 0.603 | 
5 | NCI-H2347 | 0.518 | 0.471 | 0.585 | 0.537 |  | 0.508 | 0.358 | 0.323 | 0.787 | 0.833 | 0.712 | 0.945 | 0.314 | 0.368 | 0.38 | 0.357 | 0.529
6 | NCI-H2405 | 0.808 | 0.76 | 0.861 | 0.747 | 0.846 | 0.669 | 0.66 | 0.713 | 0.831 | 0.941 | 0.762 | 0.805 | 0.389 | 0.568 | 0.391 | 0.429 | 0.69
7 | HCC-44 | 1.27 | 0.92 | 0.861 | 0.725 | 1.11 | 1.02 | 0.977 |  | 0.989 | 0.941 | 1.01 | 1.11 | 0.321 | 0.269 | 0.251 | 0.262 | 1.16
8 | NCI-H1563 |  |  |  |  | 0.538 | 0.524 | 0.519 | 0.519 |  |  |  |  | 0.664 | 0.644 | 0.648 | 0.642 | 0.53
9 | NCI-H1666 | 0.595 | 0.57 | 0.624 | 0.593 | 0.951 | 0.975 | 0.956 | 1.08 | 0.804 | 0.886 | 0.901 | 0.871 | 0.572 | 0.581 | 0.597 | 0.607 | 0.784
10 | NCI-H650 | 0.753 | 0.838 | 0.739 | 0.764 | 0.775 | 0.757 | 0.737 | 0.885 | 0.978 | 1.29 | 0.921 | 0.904 | 0.46 | 0.505 | 0.452 | 0.455 | 0.949
